Laboratory results taken from ChEMBL document CHEMBL1152052, “Probing the P3 pocket of stromelysin with piperazic acid analogs” (Bioorg Med Chem Lett, 1995).

What follows are molecules tested against Stromelysin-1 (Homo sapiens, UniProt P08254) (assay: Inhibition of matrix metalloprotease-3 (MMP-3)).
Chain of Stromelysin-1 (P08254 whole entry): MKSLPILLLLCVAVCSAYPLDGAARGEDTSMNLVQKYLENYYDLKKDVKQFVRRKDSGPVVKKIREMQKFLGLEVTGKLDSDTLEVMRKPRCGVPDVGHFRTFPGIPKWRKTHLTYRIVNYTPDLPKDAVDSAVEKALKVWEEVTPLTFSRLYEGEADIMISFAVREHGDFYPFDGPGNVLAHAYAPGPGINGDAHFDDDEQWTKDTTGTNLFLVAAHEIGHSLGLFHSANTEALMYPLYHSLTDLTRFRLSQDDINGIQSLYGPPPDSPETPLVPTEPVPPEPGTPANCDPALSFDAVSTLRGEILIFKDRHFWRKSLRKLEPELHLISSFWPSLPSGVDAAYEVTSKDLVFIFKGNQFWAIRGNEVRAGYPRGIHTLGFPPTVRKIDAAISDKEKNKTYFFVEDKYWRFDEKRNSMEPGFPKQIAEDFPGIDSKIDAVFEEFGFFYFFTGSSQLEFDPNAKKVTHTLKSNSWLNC
Molecule `CC(C)C[C@H](CC(=O)NO)C(=O)N1NCCC[C@H]1CO` has an IC50 of 2700 nM.
For `COC[C@@H]1CCCNN1C(=O)[C@@H](CC(=O)NO)CC(C)C`, the IC50 was 20400 nM.
With `CCCCC[C@H](CC(=O)NO)C(=O)N1NCCC[C@H]1C(=O)N[C@@H](C(=O)CC)C(C)CC` (stereo partly specified) the IC50 was 300 nM.
`COC(=O)[C@@H]1CCCNN1C(=O)[C@@H](CC(=O)NO)CC(C)C` was tested, and the IC50 was 810 nM.
`CC(C)C[C@H](CC(=O)NO)C(=O)N1CCCCN1` was tested, and the IC50 was 9670 nM.
Molecule `CC(C)C[C@H](CC(=O)NO)C(=O)N1NCCC[C@H]1C(=O)O` has an IC50 of 600 nM.
